Structures are written as SMILES. Where only a bound is given, the exact number is not on record here.

EC50 and IC50 data for 38 compounds are collected here from ChEMBL document CHEMBL3763116, “Synthesis and evaluation of colletoic acid core derivatives” (Eur J Med Chem, 2016).

For one assay, the system named is BJ. Nature of the assay: Cytotoxicity against human BJ cells after 72 hrs by Cell TitreGlo assay. In kind it is cell-based.
For assay [1], the target named is 11-beta-hydroxysteroid dehydrogenase 1 (Homo sapiens, UniProt P28845). The assay can be described thus: Inhibition of 11beta-HSD1 (unknown origin) using cortisol as substrate assessed as NADPH formation by fluorescent plate reader analysis.
11-beta-hydroxysteroid dehydrogenase 1, sequence (P28845 whole entry): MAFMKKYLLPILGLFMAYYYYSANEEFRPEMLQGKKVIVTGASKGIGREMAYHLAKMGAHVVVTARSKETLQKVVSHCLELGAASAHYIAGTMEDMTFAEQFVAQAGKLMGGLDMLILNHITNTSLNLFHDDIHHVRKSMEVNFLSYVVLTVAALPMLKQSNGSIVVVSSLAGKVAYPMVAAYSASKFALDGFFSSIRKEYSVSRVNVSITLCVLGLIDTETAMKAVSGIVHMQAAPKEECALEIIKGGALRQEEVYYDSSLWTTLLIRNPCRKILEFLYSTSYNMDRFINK
Assay [2] has as its target T1, 11-beta-hydroxysteroid dehydrogenase type 2 (Homo sapiens, UniProt P80365).
T1 sequence (P80365 whole entry): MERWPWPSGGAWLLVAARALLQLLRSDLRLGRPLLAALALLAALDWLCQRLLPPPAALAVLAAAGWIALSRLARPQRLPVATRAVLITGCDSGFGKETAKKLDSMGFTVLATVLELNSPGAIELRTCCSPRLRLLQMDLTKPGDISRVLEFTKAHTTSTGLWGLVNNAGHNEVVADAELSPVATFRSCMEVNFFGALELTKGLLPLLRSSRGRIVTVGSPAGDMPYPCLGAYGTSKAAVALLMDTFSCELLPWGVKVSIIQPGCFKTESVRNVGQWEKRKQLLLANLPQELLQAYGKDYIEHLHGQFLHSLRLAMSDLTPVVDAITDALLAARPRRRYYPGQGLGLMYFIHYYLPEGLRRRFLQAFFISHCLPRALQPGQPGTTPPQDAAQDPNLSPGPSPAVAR
The assay can be described thus: Inhibition of full length human 11beta-HSD2 expressed in HEK293 cells using […] as substrate incubated for 2 hrs by HTRF assay in presence of NAD+. It is filed as cell-based. On the technique in general: Time-resolved FRET reads energy transfer from a long-lived donor to a nearby acceptor.

One may read the EC50 as the concentration giving half of the maximal effect. High values mean lower potency in that assay, low ones higher potency in that assay. What is called IC50 is the concentration that inhibits the measured activity by half. Regarding `CC(C)=CCC/C(C)=C/CNC(=O)[C@H]1CC=C(C(C)C)[C@]12C=CC(=O)CC2`, the EC50 in the assay with BJ is greater than 90 µM. The half-inhibitory concentration (IC50) in assay [1] was 18 µM; in assay [2] it was greater than 1000 µM.

In the assay on BJ, `C=C1CC[C@H](C(=O)OCC)[C@@]12C=CC(=O)CC2` had an EC50 greater than 90 µM. In addition, the IC50 in assay [1] is greater than 1000 µM.

For the compound `CC1=CC[C@H](CO)[C@@]12C=CC(=O)CC2`, the EC50 in the assay with BJ is greater than 90 µM. The IC50 in assay [1] is greater than 1000 µM.

Compound `CCn1c2ccccc2c2nnc(S(=O)(=O)C[C@H]3CC=C(C(C)C)[C@]34C=CC(=O)CC4)nc21` had an EC50 in the assay with BJ greater than 90 µM. Also, the IC50 in assay [1] was 74 µM; in assay [2], greater than 1000 µM.

Take `CC(C)C1=CC[C@H](CS(=O)(=O)c2nc3ccccc3o2)[C@@]12C=CC(=O)CC2`: the EC50 in the assay on BJ was greater than 90 µM. The IC50 in assay [1] and in assay [2] was greater than 1000 µM throughout.

The compound `CC(C)C1=CC[C@H](CN2C(=O)c3ccccc3S2(=O)=O)[C@@]12C=CC(=O)CC2` returned an EC50 in the assay with BJ greater than 90 µM. The IC50 in assay [1] is 341 µM; in assay [2], greater than 1000 µM.

`CC(C)C1=CC[C@H](CS(=O)(=O)c2nnnn2-c2ccccc2)[C@@]12C=CC(=O)CC2` yielded an EC50 with BJ greater than 90 µM. In addition, the figures for the IC50 in assay [1] and in assay [2] were 245 µM and greater than 1000 µM, respectively.

With `CC(C)(C)[Si](C)(C)OCCC1=CC[C@H](CO)[C@@]12C=CC(=O)CC2`, the EC50 in the assay on BJ is greater than 90 µM. The IC50 in assay [1] was greater than 1000 µM.

As for `O=C1C=C[C@@]2(CC1)C(c1ccccc1)=CC[C@@H]2CO`, in the assay on BJ, the EC50 was greater than 90 µM. Further, the IC50 in assay [1] was greater than 1000 µM.

Turning to `CCOC[C@H]1CC=C(C(C)C)[C@]12C=CC(=O)CC2`, the EC50 in the assay with BJ was greater than 90 µM. In addition, in assay [1], the IC50 is greater than 1000 µM.

For `CC(C)C1=CC[C@H](CSc2nc3ccccc3s2)[C@@]12C=CC(=O)CC2`, in the assay on BJ, the EC50 is greater than 90 µM. For the same compound, the IC50 in assay [1] and in assay [2] was greater than 1000 µM each time.

For the compound `CC(C)C1=CC[C@H](CSc2nnnn2-c2ccccc2)[C@@]12C=CC(=O)CC2`, the EC50 in the assay on BJ was greater than 90 µM. Also, the IC50 in assay [1] and in assay [2] was greater than 1000 µM in each case.

Regarding `CC(C)C1=CC[C@H](CSc2ccc3ccccc3c2)[C@@]12C=CC(=O)CC2`, the EC50 in the assay with BJ is greater than 90 µM. The IC50 in assay [1] and in assay [2] was greater than 1000 µM in each case.

In the assay on BJ, `COC1(OC)C=C[C@@]2(CC1)C(C(C)C)=CC[C@@H]2CO` had an EC50 greater than 90 µM. Also, the IC50 in assay [1] was greater than 1000 µM.

Regarding `CC(C)C1=CC[C@H](CS(=O)(=O)c2ccc3ccccc3c2)[C@@]12C=CC(=O)CC2`, the EC50 in the assay on BJ is greater than 90 µM. Moreover, the IC50 in assay [1] was 8 µM; in assay [2], greater than 1000 µM.

For `CC(C)C1=CC[C@H](Cn2cc(CNC(=O)OC(C)(C)C)nn2)[C@@]12C=CC(=O)CC2`, the EC50 in the assay with BJ was greater than 90 µM. In addition, the IC50 in assay [1] and in assay [2] was greater than 1000 µM in each case.

Regarding `CC(C)C1=CC[C@H](C(=O)Nc2ncc(-c3ccc(Cl)cc3)s2)[C@@]12C=CC(=O)CC2`, the EC50 with BJ was greater than 90 µM. For the same compound, the IC50 is 122 µM in assay [1] and greater than 1000 µM in assay [2].

Take `O=C1C=C[C@@]2(CC1)C(COCc1ccccc1)=CC[C@@H]2CO`: in the assay with BJ, the concentration giving a half-maximal response (EC50) is greater than 90 µM. For the same compound, the IC50 in assay [1] was greater than 1000 µM.

In the assay with BJ, `CC(C)C1=CC[C@H](Cn2cc(CN(c3ncccn3)S(=O)(=O)c3ccc(N)cc3)nn2)[C@@]12C=CC(=O)CC2` came in with an EC50 greater than 90 µM. Further, the IC50 in assay [1] and in assay [2] was greater than 1000 µM in each case.

In turn, `CC(C)C1=CC[C@H](CS(=O)(=O)c2nc3ccccc3s2)[C@@]12C=CC(=O)CC2` came in with a half-maximal effective concentration (EC50) in the assay with BJ greater than 90 µM. Moreover, the IC50 in assay [1] and in assay [2] was greater than 1000 µM in each case.

`CC(C)C1=CC[C@H](C(=O)O)[C@@]12C=CC(=O)CC2` showed an EC50 with BJ greater than 90 µM. In addition, in assay [1], the IC50 is greater than 1000 µM.

For the compound `CCn1c2ccccc2c2nnc(SC[C@H]3CC=C(C(C)C)[C@]34C=CC(=O)CC4)nc21`, the EC50 in the assay with BJ is greater than 90 µM. The IC50 was 33 µM in assay [1] and greater than 1000 µM in assay [2].

Take `COc1ccc(S(=O)(=O)NCc2cn(C[C@H]3CC=C(C(C)C)[C@]34C=CC(=O)CC4)nn2)cc1`: the concentration giving a half-maximal response (EC50) in the assay with BJ was greater than 90 µM. Also, the IC50 in assay [1] and in assay [2] was greater than 1000 µM in each case.

For `CC(C)C1=CC[C@H](CO)[C@@]12C=CC(=O)CC2`, in the assay on BJ, the EC50 is greater than 90 µM. For the same compound, the IC50 in assay [1] was greater than 1000 µM.

The compound `CCCCCCSc1nnc(SC[C@H]2CC=C(C(C)C)[C@]23C=CC(=O)CC3)s1` returned an EC50 in the assay on BJ greater than 90 µM. Also, the IC50 in assay [1] and in assay [2] was greater than 1000 µM throughout.

As to `CC1=CC[C@@]2(CC1)C(C(C)C)=CC[C@@H]2CO`, in the assay with BJ, the EC50 was greater than 90 µM. Moreover, the IC50 in assay [1] is greater than 1000 µM.

Take `CC1=CC(=O)[C@@]2(CC1)C(C(C)C)=CC[C@@H]2CO[Si](C)(C)C(C)(C)C`: the EC50 in the assay with BJ is greater than 90 µM. The IC50 in assay [1] is greater than 1000 µM.

Compound `CC(C)C1=CC[C@H](C(=O)NC(C)C23CC4CC(CC(C4)C2)C3)[C@@]12C=CC(=O)CC2` (some centres undefined) registered an EC50 in the assay on BJ greater than 90 µM. Moreover, the IC50 was 85 µM in assay [1] and greater than 1000 µM in assay [2].

As to `CC(C)C1=CC[C@H](C(N)=O)[C@@]12C=CC(=O)CC2`, the EC50 in the assay with BJ was greater than 90 µM. Besides, the IC50 in assay [1] was greater than 1000 µM.

For `CC(C)C1=CC[C@H](C(=O)NCc2cc(F)cc(F)c2)[C@@]12C=CC(=O)CC2`, the EC50 in the assay with BJ was greater than 90 µM. Further, the IC50 in assay [1] and in assay [2] was greater than 1000 µM in each case.

In the assay with BJ, `CC(C)C1=CC[C@H](C(=O)NCC2CCC3CC2C3(C)C)[C@@]12C=CC(=O)CC2` (some centres undefined) registered an EC50 greater than 90 µM. Further, the IC50 in assay [1] is 94 µM; in assay [2], greater than 1000 µM.

In turn, `CCOC(=O)[C@H]1CC=C(C(C)C)[C@]12C=CC(=O)[C@@H](OC(C)=O)C2` showed an EC50 with BJ greater than 90 µM. Besides, the IC50 in assay [1] was greater than 1000 µM.

In the case of `CCCCCCSc1nnc(S(=O)(=O)C[C@H]2CC=C(C(C)C)[C@]23C=CC(=O)CC3)s1`, the EC50 in the assay on BJ is greater than 90 µM. Also, the IC50 in assay [1] is 121 µM; in assay [2] it was greater than 1000 µM.

As to `CC(C)C1=CC[C@H](C(=O)NCCc2cccs2)[C@@]12C=CC(=O)CC2`, in the assay with BJ, the EC50 was greater than 90 µM. Besides, the IC50 in assay [1] and in assay [2] was greater than 1000 µM throughout.

The compound `CC(C)C1=CC[C@H](CSc2nc3ccccc3o2)[C@@]12C=CC(=O)CC2` came in with an EC50 in the assay with BJ greater than 90 µM. In addition, the IC50 in assay [1] and in assay [2] was greater than 1000 µM throughout.

As to `CC(C)C1=CC[C@H](CO)[C@@]12C=C[C@](C)(O)CC2`, the EC50 in the assay on BJ is greater than 90 µM. For the same compound, the IC50 in assay [1] is greater than 1000 µM.

Turning to `CC(C)C1=CC[C@H](CN2C(=O)c3ccccc3C2=O)[C@@]12C=CC(=O)CC2`, the EC50 in the assay on BJ is greater than 90 µM. For the same compound, the IC50 in assay [1] and in assay [2] was greater than 1000 µM in each case.

`CCOC(=O)[C@H]1CC[C@@H](C(C)C)[C@]12C=CC(O)[C@@H](OC(C)=O)C2` (single isomer, unassigned) registered an EC50 in the assay with BJ greater than 90 µM. The IC50 in assay [1] was greater than 1000 µM.
